The term IC50 denotes the point on the concentration scale where inhibition reaches its midpoint. Low readings indicate higher potency, high ones lower potency. One may read the inhibition as the change of the read-out against control, counted positive when it falls.

Assay type in all cases: cell-based
The test system of assay [1] is LPS-induced ROS production in RAW 264.7 cells. Description: ROS production in LPS-activated RAW 264.7 macrophage cells (DCFH-DA). As to conditions: LPS-activated RAW 264.7 cells, mean ± SEM, three replicates; for IC50: Mus musculus, RAW264.7. On the procedure: TNF-α and IL-6 production were detected in RAW 264.7 macrophage cell culture supernatants following the induction of inflammation by LPS. Moreover, the probes of oxidative species 2,7-dichlorofluorescein diacetate (DCFH-DA) (Molecular Probes) and NO, 4-amino-5-methylamino-2,7-difluorofluorescein diacetate (DAF-FM diacetate) (Molecular Probes) were used to investigate the antioxidant and NO production inhibitory potential of the test compounds. Briefly, RAW 264.7 cells were cultured in black 96 well plates (200 000 cells/mL, 100 µl/well) for 24 h followed by the incubation with the individual test compounds or the reference drugs at different concentrations (12.5, 25, 50, and 100 µM) for 2 h at 37 °C. LPS was then added at a final concentration of 1 µg/mL for an additional 18 h. The cell culture supernatant was collected from cells treated with the different compounds at 25 µM to measure TNF-α and IL-6 levels (1:10 dilution) using DuoSet ELISA kits (R&D Systems, Minneapolis, MN) following the manufacturer’s instructions. Then, the plates were washed to perform ROS and NO detection assays as detailed in our previous studies[16]^,[27].

A further assay relates to CCRF-CEM. Description: NCI single dose screen, CCRF-CEM. As to conditions: Homo sapiens, leukaemia, single dose 10^−5 M, read-out: growth inhibition percentage. On the procedure: (§1) Screening of the anticancer activity of the newly synthesised compounds (6a, 6c, 6d, 6e, 6j, 6l, 6m, 6n, 6o, and 6p) was performed by the US National Cancer Institute (NCI) using 60 different human tumour cell lines in accordance with standard procedures formerly reported.
(§2) In vitro anticancer screening was carried out for the selected compounds at a single dose (10^−5 M) against 60 different human tumour cell lines of nine different cancer cell types: leukaemia, lung, colon, CNS, melanoma, ovarian, renal, prostate, and breast cancers.

For the next assay, the system named is K-562. Nature of the assay: NCI single dose screen, K-562. As to conditions: Homo sapiens, K562; K-562, leukaemia; single dose 10^−5 M; read-out: growth inhibition percentage. On the procedure:
as §1, §2

The next assay relates to RPMI-8226. Nature of the assay: NCI single dose screen, RPMI-8226. The following applies: Homo sapiens; RPMI-8226, leukaemia; single dose 10^−5 M; read-out: growth inhibition percentage. On the procedure:
as §1, §2

The test system of the next assay is HOP-62. Nature of the assay: NCI single dose screen, HOP-62. The following applies: Homo sapiens; HOP-62, non-small cell lung cancer; single dose 10^−5 M; read-out: growth inhibition percentage. The method, then: as §1, §2
A further assay deals with NCI-H226. Description: NCI single dose screen, NCI-H226. The following applies: Homo sapiens; NCI-H226, non-small cell lung cancer; single dose 10^−5 M; read-out: growth inhibition percentage. The method, then:
as §1, §2

The test system of a further assay is NCI-H23. Nature of the assay: NCI single dose screen, NCI-H23. As to conditions: Homo sapiens; NCI-H23, non-small cell lung cancer; single dose 10^−5 M; read-out: growth inhibition percentage. On the procedure:
as §1, §2

The subject of the next assay is HCT-116. Description: NCI single dose screen, HCT-116. The following applies: Homo sapiens; HCT-116, colon cancer; single dose 10^−5 M; read-out: growth inhibition percentage. The method, then: as §1, §2
A further assay concerns HT29. Description: NCI single dose screen, HT29. The following applies: Homo sapiens, HT-29; HT29, colon cancer; single dose 10^−5 M; read-out: growth inhibition percentage. On the procedure: as §1, §2
The subject of the next assay is SF-268. Description: NCI single dose screen, SF-268. The following applies: Homo sapiens; SF-268, CNS cancer; single dose 10^−5 M; read-out: growth inhibition percentage. On the procedure: as §1, §2
In another assay the test system is LOX IMVI. Nature of the assay: NCI single dose screen, LOX IMVI. As to conditions: Homo sapiens, melanoma, single dose 10^−5 M, read-out: growth inhibition percentage. The method, then:
as §1, §2

In a further assay the test system is SK-MEL-2. Description: NCI single dose screen, SK-MEL-2. As to conditions: Homo sapiens; SK-MEL-2, melanoma; single dose 10^−5 M; read-out: growth inhibition percentage. On the procedure: as §1, §2
A further assay relates to SK-MEL-5. Description: NCI single dose screen, SK-MEL-5. As to conditions: Homo sapiens; SK-MEL-5, melanoma; single dose 10^−5 M; read-out: growth inhibition percentage. On the procedure:
as §1, §2

The subject of the next assay is UACC-257. Nature of the assay: NCI single dose screen, UACC-257. The following applies: Homo sapiens; UACC-257, melanoma; single dose 10^−5 M; read-out: growth inhibition percentage. On the procedure:
as §1, §2

The next assay deals with IGROV1. Description: NCI single dose screen, IGROV1. As to conditions: Homo sapiens, IGROV-1; IGROV1, ovarian cancer; single dose 10^−5 M; read-out: growth inhibition percentage. On the procedure:
as §1, §2

For the next assay, the system named is OVCAR-5. Description: NCI single dose screen, OVCAR-5. As to conditions: Homo sapiens; OVCAR-5, ovarian cancer; single dose 10^−5 M; read-out: growth inhibition percentage. On the procedure: as §1, §2
The subject of a further assay is NCI/ADR-RES. Nature of the assay: NCI single dose screen, NCI/ADR-RES. The following applies: Homo sapiens, ovarian cancer, single dose 10^−5 M, read-out: growth inhibition percentage. On the procedure:
as §1, §2

The subject of a further assay is PC-3. Nature of the assay: NCI single dose screen, PC-3. As to conditions: Homo sapiens; PC-3, prostate cancer; single dose 10^−5 M; read-out: growth inhibition percentage. The method, then:
as §1, §2

The next assay relates to BT-549. Description: NCI single dose screen, BT-549. The following applies: Homo sapiens; BT-549, breast cancer; single dose 10^−5 M; read-out: growth inhibition percentage. The method, then:
as §1, §2

For the next assay, the system named is T-47D. Nature of the assay: NCI single dose screen, T-47D. The following applies: Homo sapiens, T47D, breast cancer, single dose 10^−5 M, read-out: growth inhibition percentage. On the procedure:
as §1, §2

The test system of the next assay is MDA-MB-468. Nature of the assay: NCI single dose screen, MDA-MB-468. The following applies: Homo sapiens; MDA-MB-468, breast cancer; single dose 10^−5 M; read-out: growth inhibition percentage. The method, then: as §1, §2

The compound `COc1ccc(C2N(NC(=O)Nc3ccc(F)cc3)C(=O)c3ccccc3N2C)cc1` (stereo not shown) [Compound 6p, 1-(4-Fluorophenyl)-3-(2–(4-methoxyphenyl)-1-methyl-4-oxo-1,4-dihydroquinazolin-3(2H)-yl)urea] registered an IC50 in [1] of 38.6 ± 1.33 µM. The inhibition at 10 µM in the assay with CCRF-CEM is under 10%; in the assay with K-562, under 10%; in the assay with RPMI-8226, 11.2%; in the assay with HOP-62, under 10%; in the assay on NCI-H226 it was under 10%; in the assay with NCI-H23, under 10%. Moreover, the inhibition at 10 µM is 14% in the assay with HCT-116; under 10% in the assay with HT29; under 10% with SF-268; 18.1% in the assay on LOX IMVI; under 10% in the assay with SK-MEL-2; under 10% in the assay with SK-MEL-5. The inhibition at 10 µM in the assay with UACC-257 is under 10%; with IGROV1 it was under 10%; in the assay with OVCAR-5, under 10%; with NCI/ADR-RES, under 10%; in the assay on PC-3 it was 15.2%; in the assay on BT-549, under 10%. Also, the inhibition at 10 µM with T-47D and in the assay on MDA-MB-468 was under 10% in each case.

`CN1CN(NC(=O)Nc2ccccc2)C(=O)c2ccccc21` [Compound 6a, 1-(1-Methyl-4-oxo-1,4-dihydroquinazolin-3(2H)-yl)-3-phenylurea] showed an IC50 in [1] of 35.7 ± 1.08 µM. Also, the inhibition at 10 µM in the assay with CCRF-CEM, in the assay with K-562, in the assay on RPMI-8226, in the assay on HOP-62, in the assay with NCI-H226 and with NCI-H23 was under 10% in each case. Moreover, the inhibition at 10 µM in the assay on HCT-116, in the assay on HT29, in the assay with SF-268, with LOX IMVI, in the assay with SK-MEL-2 and in the assay on SK-MEL-5 was under 10% in each case. In addition, the inhibition at 10 µM in the assay on UACC-257, in the assay on IGROV1, with OVCAR-5, in the assay on NCI/ADR-RES, with PC-3 and in the assay on BT-549 was under 10% each time. For the same compound, the inhibition at 10 µM with T-47D and in the assay on MDA-MB-468 was under 10% in each case.

`CN1c2ccccc2C(=O)N(NC(=O)Nc2ccccc2)C1c1ccc([N+](=O)[O-])cc1` (stereo not shown) [Compound 6e, 1-(1-Methyl-2-(4-nitrophenyl)-4-oxo-1,4-dihydroquinazolin-3(2H)-yl)-3-phenylurea]: the “ROS IC50” value in assay [1] is recorded as “neither compound 6e nor compound 6g inhibited ROS production significantly”. In assay [1], this compound showed an IC50 of over 100 µM. In addition, the inhibition at 10 µM in the assay with CCRF-CEM, in the assay on K-562, in the assay with RPMI-8226, with HOP-62, in the assay with NCI-H226 and in the assay with NCI-H23 was under 10% throughout. The inhibition at 10 µM was 53.1% in the assay on HCT-116; under 10% in the assay on HT29; under 10% in the assay on SF-268; under 10% in the assay on LOX IMVI; under 10% in the assay on SK-MEL-2; under 10% in the assay on SK-MEL-5. For the same compound, the inhibition at 10 µM is under 10% in the assay with UACC-257; under 10% in the assay with IGROV1; under 10% in the assay with OVCAR-5; under 10% in the assay on NCI/ADR-RES; under 10% in the assay with PC-3; 67.1% in the assay with BT-549. Further, the inhibition at 10 µM with T-47D and in the assay with MDA-MB-468 was under 10% each time.

In [1], `CN1c2ccccc2C(=O)N(NC(=O)Nc2ccccc2)C1c1ccc(F)cc1` (stereo not shown) [Compound 6d, 1-(2-(4-Fluorophenyl)-1-methyl-4-oxo-1,4-dihydroquinazolin-3(2H)-yl)-3-phenylurea] returned an IC50 of 37 ± 1 µM. The inhibition at 10 µM with CCRF-CEM, in the assay on K-562, in the assay on RPMI-8226, in the assay on HOP-62, with NCI-H226 and with NCI-H23 was under 10% each time. The inhibition at 10 µM in the assay with HCT-116, with HT29, with SF-268, with LOX IMVI, in the assay with SK-MEL-2 and in the assay on SK-MEL-5 was under 10% each time. The inhibition at 10 µM in the assay on UACC-257 is under 10%; in the assay on IGROV1 it was under 10%; in the assay on OVCAR-5, under 10%; in the assay with NCI/ADR-RES, under 10%; in the assay on PC-3, 18.6%; in the assay with BT-549, under 10%. Besides, the inhibition at 10 µM in the assay with T-47D and in the assay on MDA-MB-468 was under 10% each time.

With `CN1c2ccccc2C(=O)N(NC(=O)Nc2ccc(F)cc2)C1c1ccc([N+](=O)[O-])cc1` (stereo not shown) [Compound 6o, 1-(4-Fluorophenyl)-3–(1-methyl-2-(4-nitrophenyl)-4-oxo-1,4-dihydroquinazolin-3(2H)-yl)urea], the midpoint of inhibition in [1], the IC50, lay at 23.4 ± 1.13 µM. Besides, the inhibition at 10 µM with CCRF-CEM was under 10%; in the assay with K-562, 17.5%; with RPMI-8226 it was 22.4%; in the assay with HOP-62, under 10%; in the assay with NCI-H226, under 10%; in the assay on NCI-H23, under 10%. The inhibition at 10 µM in the assay with HCT-116 is 21.6%; in the assay with HT29, under 10%; in the assay on SF-268, under 10%; with LOX IMVI, 29.5%; in the assay with SK-MEL-2 it was under 10%; with SK-MEL-5 it was 13.7%. Moreover, the inhibition at 10 µM in the assay on UACC-257 was under 10%; in the assay on IGROV1, under 10%; with OVCAR-5, under 10%; in the assay with NCI/ADR-RES, under 10%; with PC-3, 31%; in the assay with BT-549 it was under 10%. Moreover, the inhibition at 10 µM with T-47D and in the assay on MDA-MB-468 was under 10% throughout.

For the origin of these results see article PMC10114980, “Triple targeting of mutant EGFR^L858R/T790M, COX-2, and 15-LOX: design and synthesis of novel quinazolinone tethered phenyl urea derivatives for anti-inflammatory and anticancer evaluation” (Journal of Enzyme Inhibition and Medicinal Chemistry, 2023).
